Measured values as given in patent US20150126597A1, “GENISTEIN CANCER TREATMENT REGIMEN MAXIMIZING CANCER RADIATION THERAPY BENEFITS” (Humanetics Corporation, priority 2013, published 2015).

How the values were obtained:
[1] = system: uterus, GI tract, esophagus, skin, tumor, lungs; assay: Example 1: post mortem tissue weights and histopathology (safety); type: in vivo, mouse; conditions: Example 1, 10 weeks dosing 5 d/wk
Method: At the time of euthanasia organs were harvested and wet tissue weights were measured. In addition to the tissues the weight of the remaining tumor was determined so that the tumor weight can be correlated with the calculated tumor volumes.
The various tissues were fixed in formalin, then processed and embedded in paraffin. Hematoxylin and eosin (H&E) staining was done on 5 micron sections from each of the tissues.
Following euthanasia organ weights were collected for the lungs, uterus, and GI tract. In addition, the tumor was resected and weighed. […]
The examined tissues included the lungs, GI tract (esophagus), uterus, tumor, and the skin near the A549 tumor xenograft. […] All tissues were analyzed microscopically following H&E staining. For these analyses 5 tumors, 5 lung samples, and 5 skin samples were analyzed from each experimental group. In addition, three uterus samples and three esophagus samples from each experimental group were analyzed. All tissue samples were prepared, sectioned, and stained with H&E. Tissues were analyzed for gross morphology and H&E sections were evaluated for inflammatory cells, capillary distension, and congestion. A veterinary pathologist scored the severity and distribution of anomalies observed. […]

[2] = Genistein provided as a nano suspension in accordance with US 2012/0164190 and 2012/0121654; cited from earlier work
[3] = cited from earlier work

## O=c1c(-c2ccc(O)cc2)coc2cc(O)cc(O)c12 [Genistein, 5,7-dihydroxy-3-(4-hydroxyphenyl)-chromen-4-one]
[1]
  Uterus wet weight: did not dramatically affect the wet uterine weights
[2]
  Oral bioavailability: significantly improved oral bioavailability
[3]
  Solubility in water: virtually insoluble in water
